# Assay results taken from BindingDB's records for doi:10.1016/j.ejmech.2017.01.044 (Universidade De Lisboa, 2017).
# Assay: Inhibition of human ABCB1 expressed in mouse L5178Y cells assessed as reduction in cell growth after 24 hrs by MTT assay
row,SMILES,IC50 [µM]
1,CC[C@H]1CN(C)[C@H]2Cc3c([nH]c4ccccc34)[C@@H](O)C[C@H]1[C@@H]2C(=O)OC,> 100
2,CC[C@H]1CN(C)[C@H]2Cc3c(n(Cc4ccccc4)c4ccccc34)C(=O)C[C@H]1[C@@H]2C(=O)OC,38.1
3,CC[C@H]1CN(C)[C@H]2Cc3c(n(C(=O)c4cccc(C)c4)c4ccccc34)C(=O)C[C@H]1[C@@H]2C(=O)OC,> 100
4,CC[C@@H]1CN(C)[C@H]2Cc3c([nH]c4ccccc34)[C@@H](OC(=O)C34CC5CC(CC(C5)C3)C4)C[C@H]1[C@@H]2C(=O)OC,> 100
5,CC[C@@H]1CN(C)[C@H]2Cc3c([nH]c4ccccc34)/C(=N/NC(N)=O)C[C@H]1[C@@H]2C(=O)OC,> 100
6,CC[C@H]1CN(C)[C@H]2Cc3c([nH]c4ccccc34)C(=O)C[C@H]1[C@@H]2C(=O)OC,> 100
7,CC[C@@H]1CN(C)[C@H]2Cc3c([nH]c4ccccc34)/C(=N/O)C[C@H]1[C@@H]2C(=O)OC,85.4
8,CC[C@@H]1CN(C)[C@H]2Cc3c([nH]c4ccccc34)[C@@H](O)C[C@H]1[C@@H]2C(=O)OC,83.9
9,CC[C@@H]1CN(C)[C@H]2Cc3c([nH]c4ccccc34)/C(=N/Nc3ccccc3)C[C@H]1[C@@H]2C(=O)OC,17
10,CC[C@H]1CN(C)[C@H]2Cc3c([nH]c4ccccc34)/C(=N/Nc3cnccn3)C[C@H]1[C@@H]2C(=O)OC,84.8
11,C/C=C/C(=O)O[C@H]1C[C@@H]2[C@@H](CC)CN(C)[C@@H](Cc3c1[nH]c1ccccc31)[C@H]2C(=O)OC,> 100
12,CC[C@@H]1CN(C)[C@H]2Cc3c([nH]c4ccccc34)/C(=N/Nc3ccc(Br)cn3)C[C@H]1[C@@H]2C(=O)OC,37.6
13,CC[C@H]1CN(C)[C@H]2Cc3c([nH]c4ccccc34)/C(=N/NC(N)=O)C[C@H]1[C@@H]2C(=O)OC,> 100
14,CC[C@@H]1CN(C)[C@H]2Cc3c([nH]c4ccccc34)C(=O)C[C@H]1[C@@H]2C(=O)OC,> 100
15,CC[C@H]1CN(C)[C@H]2Cc3c(n(CCN(CC)CC)c4ccccc34)C(=O)C[C@H]1[C@@H]2C(=O)OC,> 100
16,CC[C@H]1CN(C)[C@H]2Cc3c([nH]c4ccccc34)/C(=N/Nc3ccc(Br)cn3)C[C@H]1[C@@H]2C(=O)OC,39.9
17,CC[C@H]1CN(C)[C@H]2Cc3c([nH]c4ccccc34)/C(=N/NC(=S)NCc3cccnc3)C[C@H]1[C@@H]2C(=O)OC,45.2
18,CC[C@@H]1CN(C)[C@H]2Cc3c([nH]c4ccccc34)/C(=N/Nc3cnccn3)C[C@H]1[C@@H]2C(=O)OC,> 100
19,CC[C@H]1CN(C)[C@H]2Cc3c([nH]c4ccccc34)/C(=N/NC(=O)OCc3ccc(OC)cc3)C[C@H]1[C@@H]2C(=O)OC,52.3
20,CC[C@H]1CN(C)[C@H]2Cc3c([nH]c4ccccc34)/C(=N/O)C[C@H]1[C@@H]2C(=O)OC,16.7
21,CC[C@H]1CN(C)[C@H]2Cc3c([nH]c4ccccc34)/C(=N/Nc3ccccc3)C[C@H]1[C@@H]2C(=O)OC,52.7
22,CC[C@H]1CN(C)[C@H]2Cc3c(n(C)c4ccccc34)C(=O)C[C@H]1[C@@H]2C(=O)OC,89.2
23,CC[C@H]1CN(C)[C@H]2Cc3c([nH]c4ccccc34)C(=S)C[C@H]1[C@@H]2C(=O)OC,77.9
